Laboratory results taken from patent US12233068B2, “Combination of active agents for the treatment of progressive fibrosing interstitial lung diseases (PF-ILD)” (Boehringer Ingelheim International GmbH, priority 2017, dated 2025).
Where two headings read alike, the source gives them in different places.

How the values were obtained:
[1] = test system: TGF-β-stimulated α-SMA protein expression of human lung fibroblasts from patients with IPF; test: α-SMA (smooth muscle actin) protein assay (Western replacement assay, MSD), Experiment A; format: cell-based; settings: for IC50: n=5 donors; for sign of inhibition of TGF-β-stimulated α-SMA protein expression over the concentration/inhibition curve: low PDE4-inhibitor concentrations, alone or in combination with Nintedanib
Experimental: (§1) Lung fibroblasts of IPF-patients (IPF-LF cells) grown in 96-well plates were incubated for min with different concentrations of the PDE4 inhibitors “Compound of formula III”, “Apremilast” or “Roflumilast-N-Oxide” or with a combination of each of the aforementioned PDE4-inhibitors with Nintedanib.
(§2) After compound incubation cells were stimulated with the assay-relevant stimulus and incubated for the assay—relevant time in the presence of the test compounds.
α-SMA protein was determined by a Western-replacement assay (MSD) using monoclonal anti smooth muscle actin antibodies.
IPF-lung fibroblasts (passage 5 to 8) were seeded in 96-well cell culture plates at 4500 cells/well with 100 μL/well FBM+supplements. 24 h after seeding the cells were washed once with FBM medium without supplements and starved for 24 h.
In experiment A1) the PDE4B-inhibitor of formula III was used as a “test compound” • in rising concentrations either alone (see full circles and black solid curve in FIG. 1) or • in rising concentrations together with a fixed concentration of 100 nMol/L of Nintedanib (see empty circles and grey solid line in FIG. 1). Experiment A2)
In experiment A2) Apremilast was used as a “test compound” • in rising concentrations either alone (see full circles and black solid curve in FIG. 2) or • in rising concentrations together with a fixed concentration of 100 nMol/L of Nintedanib (see empty circles and grey solid line in FIG. 2). Experiment A3)
In experiment A3) Roflumilast-N-oxide was used as a “test compound” • in rising concentrations either alone (see full circles and black solid curve in FIG. 3) or • in rising concentrations together with a fixed concentration of 100 nMol/L of Nintedanib (see empty circles and grey solid line in FIG. 3). Test Compound Dilutions
All “test compounds” (the PDE4B-inhibitor of formula III, Apremilast or Roflumilast) were prepared 1000× in 0.1 mmol/L HCl or DMSO and a 1:3.16 dilution series was performed (in 0.1 mmol/L HCl or DMSO). To obtain 2× concentrated compound-medium a 1:500 dilution (2 μl of the 1000× dilution was added to 998 μl FBM plus 2 nmol/L PGE2) was prepared.
48 h after seeding, the medium was aspirated and FBM (100 μl per well) was added. After 1 h incubation at 37° C., 90 μl medium containing 2× concentrated compounds (at different concentrations) plus 2× concentrated PGE2 (2 nmol/L) was added for 30 min Final concentration for PGE2 was 1 nmol/L.
30 min after test compound pre-incubation (190 μL), 10 μl of 20× concentrated TGF-β was added and the cells stimulated for 48 h at a temperature of 37° C.
For this purpose the TGF-β stock solution (20 μg/mL reconstituted in 4 mmol/L sterile HCL) was diluted 1:200 in starvation medium to reach a concentration of 100 ng/mL. 10 μL of this TGF-β medium or starvation medium was added to indicated wells. The test compound concentration was maintained during the stimulation. The final TGF-β concentration was […].
48 h after stimulation supernatants were removed and stored at −80° C. for further experiments. Cells were washed once with ice cold PBS and 50 μl RIPA buffer containing 1× protease inhibitor was added per well. Lysates were incubated for 5 minutes on ice before stored at −80° C.
After thawing, 25 μl of each lysate was transferred to the membrane of the multi-array 96 well plate (MSD) and incubated for 2 h at room temperature with gentle shaking. After the incubation time, plates were washed 3 times with 200 μl 1× Tris-wash buffer (MSD) and 150 μl of 3% blocking buffer was added for 1 h. After blocking, plates were washed 3 times with 200 μl 1× Tris-wash buffer and 25 μl of the antibody solution (per plate 0.75 ml 3% blocking buffer, 2.25 ml 1× Tris-wash buffer, 1.2 μl anti-α-SMA antibody (1:2500), 15 μl goat anti-mouse sulfo-tag antibody (1:200) was added for 1 h. After AB-incubation plates were washed 3 times with 200 μl 1× Tris-wash buffer and 150 μl of 1×MSD read buffer was added per well. Plates were measured with Sector Imager (MSD). […]

[2] = test system: FGF plus IL-1β-stimulated proliferation of human lung fibroblasts from patients with IPF; test: Cell proliferation assay (BrdU incorporation), Experiment B; format: cell-based; settings: for IC50: n=5 donors; for IC50 of PDE4 inhibitor alone compared to IC50 of its combination with Nintedanib (proliferation): IC50 alone / IC50 with 100 nMol/L Nintedanib; for effect of the combination with Nintedanib on inhibition of fibroblast proliferation versus calculated additive curve: measured curve with 100 nMol/L Nintedanib compared with calculated additive curve (Poch & Holzmann)
Experimental: as §1, §2
BrdU incorporated in the DNA of proliferating cells was determined by ELISA. BrdU is an analog of the DNA precursor thymidine. In proliferating cells, the DNA has to be replicated before the division can take place. If BrdU is added to the cell culture, proliferating cells will incorporate it into their DNA just like they would incorporate thymidine. The amount of BrdU in the DNA of cells can be detected with specific anti-BrdU fluorescent antibodies followed by flow cytometry or by cellular ELISA with monoclonal antibodies against BrdU.
IPF-lung fibroblasts (passage 5 to 8) were seeded in 96-well cell culture plates at 2500 cells/well with 100 μL/well FBM+supplements. 24 h after seeding the cells were washed once with FBM medium without supplements and then kept in this medium for 24 h starvation.
In experiment B1) the PDE4B-inhibitor of formula III was used as a “test compound” • in rising concentrations either alone (see full circles and black solid curve in FIG. 4) or • in rising concentrations together with a fixed concentration of 100 nMol/L of Nintedanib (see empty circles and grey solid line in FIG. 4).
In experiment B2) Apremilast was used as a “test compound” • in rising concentrations either alone (see full circles and black solid curve in FIG. 5) or • in rising concentrations together with a fixed concentration of 100 nMol/L of Nintedanib (see empty circles and grey solid line in FIG. 5).
In experiment B3) Roflumilast-N-oxide was used as a “test compound” • in rising concentrations either alone (see full circles and black solid curve in FIG. 6) or • in rising concentrations together with a fixed concentration of 100 nMol/L of Nintedanib (see empty circles and grey solid line in FIG. 6).
All test compounds were prepared 1000× in 0.1 mmol/L HCl or DMSO and a 1:3.16 dilution series was performed (in 0.1 mmol/L HCl or DMSO). To obtain 1× concentrated compound medium 1 μl of the 1000×DMSO dilution was added to 999 μl FBM.
48 h after seeding, medium was removed by suction and 90 μl compound- or starvation medium was added for 30 min
30 min after test compound pre-incubation (90 μL), 10 μl of 10× concentrated FGF plus IL-1β was added and the cells were stimulated for 92 h at a temperature of 37° C.
For this purpose the FGF and IL-1β stock solutions (250 μg/mL and 10 μg/mL respectively) were diluted in starvation medium to reach a concentration of 200 ng/mL and 300 pg/mL for FGF and IL-1β respectively. 10 μL of this stimulus medium or starvation medium was added to the indicated wells. The test compound concentration was maintained during the stimulation.
The final FGF concentration was 20 ng/mL. The final IL-1β concentration was 30 pg/mL.
Proliferation was determined by a colorimetric immunoassay for the quantification of cell proliferation, based on the measurement of BrdU incorporation during DNA synthesis. The assay was carried out according to the manufacturer's instructions.
72 h after stimulation a 1:100 dilution of BrdU in starvation medium (resulting concentration 100 μmol/L) was performed and 10 μl added per well (end-concentration per well 10 μmol/l). About 18 h later the BrdU medium was removed by suction. Cells were fixed and denatured for 30 min at room temperature with FixDenat reagent. The reagent was removed by tapping and the anti-BrdU-POD working solution was added (incubation time: 90 min). The plate was washed three times with 200 μL washing buffer before incubation with substrate solution for about 10 min. […]

human COPD-patients = settings: 500 μg daily; cited from earlier work
rat = settings: in vivo; cited from earlier work

With CCOc1cc([C@@H](CS(C)(=O)=O)N2C(=O)c3cccc(NC(C)=O)c3C2=O)ccc1OC [Apremilast] the IC50 ([1]; Homo sapiens, Fibroblast, PDE4 inhibitor alone, IPF lung fibroblasts, read-out: IC50, inhibition of TGF-β-stimulated α-SMA protein expression) was 3000 nM, the IC50 ([1]; Homo sapiens, Fibroblast, PDE4 inhibitor in rising concentrations with fixed 100 nMol/L Nintedanib, read-out: IC50, inhibition of TGF-β-stimulated α-SMA protein expression, combination with Nintedanib) was 2000 nM and the “sign of inhibition of TGF-β-stimulated α-SMA protein expression over the concentration/inhibition curve” value [1] was “negative inhibitions”. For the same molecule, the IC50 ([2]; Homo sapiens, Fibroblast, PDE4 inhibitor alone, IPF lung fibroblasts, read-out: IC50, inhibition of FGF plus IL-1β-stimulated proliferation) was 1800 nM, the IC50 ([2]; Homo sapiens, Fibroblast, PDE4 inhibitor in rising concentrations with fixed 100 nMol/L Nintedanib, read-out: IC50, inhibition of FGF plus IL-1β-stimulated proliferation, combination with Nintedanib) was 1600 nM and the “IC50 of PDE4 inhibitor alone compared to IC50 of its combination with Nintedanib (proliferation)” value [2] was 1.13 fold. For the same molecule, the “effect of the combination with Nintedanib on inhibition of fibroblast proliferation versus calculated additive curve” value [2] was “additive effect”.
For COC(=O)c1ccc2c(c1)NC(=O)/C2=C(\Nc1ccc(N(C)C(=O)CN2CCN(C)CC2)cc1)c1ccccc1 [Nintedanib], the “inhibitory effect on TGF-β-stimulated α-SMA protein expression (in words)” value ([1]; 100 nM Nintedanib alone) was “no inhibitory effect”, the “Inhibition of TGF-β-stimulated α-SMA protein expression” value ([1]; 100 nMol/L Nintedanib alone, FIGS. 1, 2 and 3) was no more than 0 and the “inhibitory effect on human lung fibroblasts proliferation (in words)” value ([2]; Nintedanib alone, 100 nMol/L) was “clear inhibitory effect”.
In the case of O=C(Nc1c(Cl)c[n+]([O-])cc1Cl)c1ccc(OC(F)F)c(OCC2CC2)c1 [Roflumilast N-Oxide], the IC50 ([1]; PDE4 inhibitor alone, IPF lung fibroblasts, read-out: IC50, inhibition of TGF-β-stimulated α-SMA protein expression) is reported as 14 nM, the IC50 ([1]; PDE4 inhibitor in rising concentrations with fixed 100 nMol/L Nintedanib, read-out: IC50, inhibition of TGF-β-stimulated α-SMA protein expression, combination with Nintedanib) is reported as 8.5 nM and the “sign of inhibition of TGF-β-stimulated α-SMA protein expression over the concentration/inhibition curve” value [1] is reported as “negative inhibitions”. The “IC50 of PDE4 inhibitor alone compared to IC50 of its combination with Nintedanib (proliferation)” value [2] was 0.82 fold, the IC50 ([2]; PDE4 inhibitor alone, IPF lung fibroblasts, read-out: IC50, inhibition of FGF plus IL-1β-stimulated proliferation) was 0.44 nM and the IC50 ([2]; PDE4 inhibitor in rising concentrations with fixed 100 nMol/L Nintedanib, read-out: IC50, inhibition of FGF plus IL-1β-stimulated proliferation, combination with Nintedanib) was 0.534 nM. The “effect of the combination with Nintedanib on inhibition of fibroblast proliferation versus calculated additive curve” value [2] was “additive effect”.
For O=C(Nc1c(Cl)cncc1Cl)c1ccc(OC(F)F)c(OCC2CC2)c1 [Roflumilast], the “patients with decreased weight” value (human COPD-patients) is listed as 7.5%, the patients with diarrhea (human COPD-patients) is listed as 9.5% and the patients with headache (human COPD-patients) is listed as 4.4%. For the same molecule, the patients with nausea (human COPD-patients) was 4.7% and the “gastrointestinal side effects in similar gastric emptying and intestinal transit experiments” value (rat) was “clear trend to show gastrointestinal side effects”.
